Results reported in patent US20200009262A1, “TARGETED CONSTRUCTS AND FORMULATIONS THEREOF” (TARVEDA THERAPEUTICS, INC., priority 2016, published 2020).
Read-outs that look alike come from different tables or passages of the source.

Legend:
[1] = transthyretin, 55 KDa serum protein, background statement; cited from earlier work
SW48 cells = assay: IC50 in SW48 cells; format: cell-based, human
Once/week MTD = conditions: in vivo
[2] = test system: SW48 xenograft model (human colorectal cancer); assay: Efficacy study in SW48 xenograft model, tumor growth inhibition; format: in vivo; conditions: irinotecan 50 mg/kg once/week for two weeks
Protocol: Efficacy of Compound 3 was tested in an SW48 xenograft model (human colorectal cancer). Efficacies of the other compounds in Table 2 were also tested. All conjugates were dosed twice/week for two weeks.

[3] = In vivo half-life / NCA pharmacokinetics of albumin binding conjugates in rat plasma; set-up: species or system rats; conditions: for half-life: iv, 1 mg/kg
Protocol: Compound 3 and Compound 4 were administered to rats at 1 mg/kg via IV. […] Therefore, the concentration of Compound 3′ is measured after treating plasma samples at a low pH.

[4] = Blood pressure study, tail cuff, 10 minute intravenous infusion; format: in vivo, Sprague Dawley rats; conditions: 400 nmol/kg infused over 10 minutes; significant drop = drop of at least 10%
Protocol: An external pumping device was used to deliver the target dose volume for each animal over a 10 minute dosing interval. Blood pressure was measured by tail cuff using the CODA Non-Invasive Blood Pressure system. Animals were placed in restrainers with the tail cuff on. The animals and the restrainers were then placed on a heating pad for approximately 5 minutes. Following the 5 minute heating pad acclimation an additional acclimation data collection took place prior to dose initiation for approximately 5 minutes. Blood pressure data began at dose initiation and was collected through at least 30 minutes postdose. […] Test articles were infused over 10 minutes. The start and stop times for the following processes were documented. The following parameters were collected: diastolic pressure, systolic pressure, mean blood pressure, heart rate, tail blood flow, and tail blood volume.

[5] = Day 4, conjugates twice/week for two weeks (3, 4, 7, 8: 2.0 mg/kg; 5, 6: 0.025 mg/kg)
[6] = Day 8, conjugates twice/week for two weeks (3, 4, 7, 8: 2.0 mg/kg; 5, 6: 0.025 mg/kg)
[7] = Day 10, conjugates 2.0 mg/kg twice/week for two weeks
[8] = Day 14, conjugates 2.0 mg/kg twice/week for two weeks
[9] = Day 17, conjugates 2.0 mg/kg twice/week for two weeks
[10] = Day 21, conjugates 2.0 mg/kg twice/week for two weeks
[11] = in vivo, IV 1.0 mg/kg, plasma, measured as Compound 3′ after low pH treatment

Compound: Transthyretin
- in vivo half-life [1]: around 48 h

Compound: COc1ccc(C2=CN3C(=O)c4cc(OC)c(OCCCOc5cc6c(cc5OC)C(=O)N5C=C(c7ccc(NC(=O)[C@H](C)NC(=O)[C@@H](NC(=O)CCCCCN8C(=O)CC(SCCC(=O)NCCCC[C@H](NC(C)=O)C(=O)N9CCC[C@H]9C(=O)N(C)[C@@H](CCCNC(=N)N)C(=O)N[C@@H](CCCNC(=N)N)C(=O)N9CCC[C@H]9C(=O)N[C@@H](Cc9ccc(O)cc9)C(=O)N[C@H](C(=O)N[C@@H](CC(C)C)C(=O)O)C(C)(C)C)C8=O)C(C)C)cc7)C[C@H]5C=N6)cc4N=C[C@@H]3C2)cc1 (stereo partly drawn) [Compound 5]
- IC50 (SW48 cells): 1.8 nM
- MTD (Once/week MTD): 0.05 mg/kg
- TGI % [2, 5]: 21.3%
- TGI % [2, 6]: 45.9%

Compound: CCc1c2c(nc3ccc(OC(=O)N4CCC(N5CCCCC5)CC4)cc13)-c1cc3c(c(=O)n1C2)COC(=O)[C@]3(O)CC [Irinotecan, irinotecan, reference compound]
- MTD (Once/week MTD): 50 mg/kg
- TGI % [2, 6]: 10%
- TGI % [2, 7]: 12.8%
- TGI % [2, 8]: 33%
- TGI % [2, 9]: 34.9%
- TGI % [2, 10]: 33.9%

Compound: COc1ccc(C2=CN3C(=O)c4cc(OC)c(OCCCOc5cc6c(cc5OC)C(=O)N5C=C(c7ccc(NC(=O)[C@H](C)NC(=O)[C@@H](NC(=O)CCCCCN8C(=O)CC(SCCC(=O)NCCCC[C@H](NC(C)=O)C(=O)N9CCC[C@H]9C(=O)N[C@@H](CC(C)C)C(=O)N9CCC[C@H]9C(=O)N(C)[C@@H](CCCNC(=N)N)C(=O)N[C@H](C(=O)N[C@@H](CCCNC(=N)N)C(=O)N[C@@H](Cc9ccc(O)cc9)C(=O)O)C(C)(C)C)C8=O)C(C)C)cc7)C[C@H]5C=N6)cc4N=C[C@@H]3C2)cc1 (stereo partly drawn) [Compound 6]
- IC50 (SW48 cells): 4 nM
- MTD (Once/week MTD): 0.05 mg/kg
- TGI % [2, 5]: 22.2%
- TGI % [2, 6]: 28.3%

Compound: COc1cc2cc(c1Cl)N(C)C(=O)C[C@H](OC(=O)[C@H](C)N(C)C(=O)CCSC1CC(=O)N(CCCNC(=O)CNC(=O)[C@H](CC(C)C)NC(=O)[C@H](Cc3ccccc3)NC(=O)CNC(=O)CCC(=O)NCCCC[C@H](NC(C)=O)C(=O)N3CCC[C@H]3CN[C@@H](CC(C)C)C(=O)N3CCC[C@H]3C(=O)N(C)[C@@H](CCCNC(=N)N)C(=O)N[C@H](C(=O)N[C@@H](CCCNC(=N)N)C(=O)N[C@@H](Cc3ccc(O)cc3)C(=O)O)C(C)(C)C)C1=O)[C@]1(C)O[C@H]1[C@H](C)[C@@H]1C[C@@](O)(NC(=O)O1)[C@H](OC)/C=C/C=C(\C)C2 (stereo partly drawn) [Compound 7]
- MTD (Once/week MTD): > 8 mg/kg
- TGI % [2, 5]: −11%
- TGI % [2, 6]: −22.6%
- TGI % [2, 7]: −29.7%
- TGI % [2, 8]: −32%
- TGI % [2, 9]: −48.3%
- TGI % [2, 10]: −52.8%

Compound: COc1cc2cc(c1Cl)N(C)C(=O)C[C@H](OC(=O)[C@H](C)N(C)C(=O)CCSC1CC(=O)N(CCCNC(=O)CNC(=O)[C@H](CC(C)C)NC(=O)[C@H](Cc3ccccc3)NC(=O)CNC(=O)CCC(=O)NCCCC[C@H](NC(C)=O)C(=O)N3CCC[C@H]3C(=O)N(C)[C@@H](CCCNC(=N)N)C(=O)N[C@@H](CCCNC(=N)N)C(=O)N3CCC[C@H]3C(=O)N[C@@H](Cc3ccc(O)cc3)C(=O)N[C@H](C(=O)N[C@@H](CC(C)C)C(=O)O)C(C)(C)C)C1=O)[C@]1(C)O[C@H]1[C@H](C)[C@@H]1C[C@@](O)(NC(=O)O1)[C@H](OC)/C=C/C=C(\C)C2 (stereo partly drawn) [Compound 4]
- IC50 (SW48 cells): 3.7 nM
- MTD (Once/week MTD): > 8 mg/kg
- degradation in rat plasma compared with albumin bound Compound 3 ([3]; IV 1 mg/kg, FIG. 3): degraded faster
- mean blood pressure change [4]: significant drop in mean blood pressure

Compound: COc1cc2cc(c1Cl)N(C)C(=O)C[C@H](OC(=O)[C@H](C)N(C)C(=O)CCSC1CC(=O)N(CCCNC(=O)CNC(=O)[C@H](CC(C)C)NC(=O)[C@H](Cc3ccccc3)NC(=O)CNC(=O)CCC(=O)NCCCC[C@H](NC(=O)c3ccc(/C(C)=N/NC(=O)CCCCCN4C(=O)C=CC4=O)cc3)C(=O)N3CCC[C@H]3C(=O)N(C)[C@@H](CCCNC(=N)N)C(=O)N[C@@H](CCCNC(=N)N)C(=O)N3CCC[C@H]3C(=O)N[C@@H](Cc3ccc(O)cc3)C(=O)N[C@H](C(=O)N[C@@H](CC(C)C)C(=O)O)C(C)(C)C)C1=O)[C@]1(C)O[C@H]1[C@H](C)[C@@H]1C[C@@](O)(NC(=O)O1)[C@H](OC)/C=C/C=C(\C)C2 (stereo partly drawn) [Compound 3]
- MTD (Once/week MTD): 4 to 8 mg/kg
- rat plasma half-life relative to Compound 4 (does not bind albumin) ([3]; IV 1 mg/kg): 80 fold
- AUC [3, 11]: 33.7 µM·h
- AUC(0-inf) [3, 11]: 39.3 µM·h
- Cmax [3, 11]: 4.69 µM
- clearance [3, 11]: 0.16 mL/min/kg
- Vd ([3]; in vivo, IV 1.0 mg/kg, plasma, measured as Compound 3′ after low pH treatment, read-out: Vss): 0.107 L/kg
- half-life ([3]; in vivo, IV 1.0 mg/kg, plasma, measured as Compound 3′ after low pH treatment of plasma samples, read-out: t½ (converted)): 9.32 h
- half-life ([3]; in vivo, IV 1 mg/kg, read-out: rat plasma half-life (converted)): 9.3 h
- mean blood pressure change [4]: no significant drop in mean blood pressure
